Source: patent US10934298B2, “Substituted pyrazolo[1,5-a]pyrimidines for the treatment of medical disorders” (BIAL—BioTech Investments, Inc., priority 2016, dated 2021)

Biological target: T1, glucocerebrosidase (Gcase) (Homo sapiens, UniProt P04062)
T1 construct: micellar solution containing 10 nM GCase and 100 nM saposin C
T1 sequence (P04062 40-536): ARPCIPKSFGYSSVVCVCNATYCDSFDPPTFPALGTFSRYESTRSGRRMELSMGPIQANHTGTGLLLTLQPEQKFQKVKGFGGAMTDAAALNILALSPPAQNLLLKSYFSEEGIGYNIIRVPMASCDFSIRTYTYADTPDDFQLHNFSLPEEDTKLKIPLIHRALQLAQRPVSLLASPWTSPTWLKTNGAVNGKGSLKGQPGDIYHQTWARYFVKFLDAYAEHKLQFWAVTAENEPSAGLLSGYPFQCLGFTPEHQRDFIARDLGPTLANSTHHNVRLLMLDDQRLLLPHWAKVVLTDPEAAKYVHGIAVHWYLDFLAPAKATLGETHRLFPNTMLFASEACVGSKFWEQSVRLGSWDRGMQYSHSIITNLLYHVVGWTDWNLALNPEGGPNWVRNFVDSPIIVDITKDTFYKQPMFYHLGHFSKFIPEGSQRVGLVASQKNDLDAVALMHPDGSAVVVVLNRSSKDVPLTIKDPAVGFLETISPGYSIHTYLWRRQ
Assay: Glucocerebrosidase (Gcase) activation assay with 4-methylumbelliferyl-beta-D-glucopyranoside substrate, saposin C and phosphatidylserine/triton micelles, fluorescence readout
Format: biochemical
Method in brief: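 Test compounds are first screened at 1.0 and 0.1 μM final, then titrated in 8 points (3-fold from 5 μM) against human GCase with saposin C in phosphatidylserine/triton X-100 micelles at pH 4.7. Reactions run 15 min at room temperature, with fluorescence read at 365/440 nm.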

SMILES	Percent Gcase Activation, 0.1 μM Test Compound (test compound at 0.1 μM)	Percent Gcase Activation, 1 μM Test Compound (test compound at 1.0 μM)	Percent Gcase Activation, 0.1 μM Test Compound (0.1 μM test compound)	Percent Gcase Activation, 1 μM Test Compound (1 μM test compound)
COc1cncc(-c2cc(C)n3ncc(C(=O)NC(C)C(F)(F)F)c3n2)c1 (centres unmarked) [III-270]	** (Gcase activation in the range of 10% up to 20%)	+++ (Gcase activation greater than 60%)	–	–
COc1ccc(-c2cc(C)n3ncc(C(=O)NC(C)C(F)(F)F)c3n2)cn1 (centres unmarked) [III-271]	*** (greater than 20% Gcase activation)	+++ (Gcase activation greater than 60%)	–	–
COc1ccc(-c2cc(C)n3ncc(C(=O)N[C@H](C)C(F)(F)F)c3n2)cn1 [III-272]	** (Gcase activation in the range of 10% up to 20%)	+++ (Gcase activation greater than 60%)	–	–
COc1ccc(-c2cc(C)n3ncc(C(=O)N[C@@H](C)C(F)(F)F)c3n2)cn1 [III-273]	*** (greater than 20% Gcase activation)	+++ (Gcase activation greater than 60%)	–	–
Cc1ccncc1-c1cc(C)n2ncc(C(=O)NC(C3CC3)C(F)(F)F)c2n1 (centres unmarked) [III-274]	* (less than 10% Gcase activation)	+++ (Gcase activation greater than 60%)	–	–
Cc1cncc(-c2cc(C)n3ncc(C(=O)NC(C4CC4)C(F)(F)F)c3n2)c1 (centres unmarked) [III-275]	*** (greater than 20% Gcase activation)	+++ (Gcase activation greater than 60%)	–	–
Cc1cncc(-c2cc(C)n3ncc(C(=O)N[C@H](C4CC4)C(F)(F)F)c3n2)c1 [III-276]	*** (greater than 20% Gcase activation)	+++ (Gcase activation greater than 60%)	–	–
Cc1cncc(-c2cc(C)n3ncc(C(=O)N[C@@H](C4CC4)C(F)(F)F)c3n2)c1 [III-277]	*** (greater than 20% Gcase activation)	+++ (Gcase activation greater than 60%)	–	–
Cc1ccc(-c2cc(C)n3ncc(C(=O)NC(C4CC4)C(F)(F)F)c3n2)cn1 (centres unmarked) [III-278]	*** (greater than 20% Gcase activation)	+++ (Gcase activation greater than 60%)	–	–
Cc1ccc(-c2cc(C)n3ncc(C(=O)N[C@H](C4CC4)C(F)(F)F)c3n2)cn1 [III-279]	** (Gcase activation in the range of 10% up to 20%)	+++ (Gcase activation greater than 60%)	–	–
Cc1ccc(-c2cc(C)n3ncc(C(=O)N[C@@H](C4CC4)C(F)(F)F)c3n2)cn1 [III-280]	*** (greater than 20% Gcase activation)	+++ (Gcase activation greater than 60%)	–	–
Cc1ccncc1-c1cc(C)n2ncc(C(=O)NC(C)C(F)(F)F)c2n1 (centres unmarked) [III-281]	* (less than 10% Gcase activation)	+ (less than 30% Gcase activation)	–	–
Cc1cncc(-c2cc(C)n3ncc(C(=O)NC(C)C(F)(F)F)c3n2)c1 (centres unmarked) [III-282]	** (Gcase activation in the range of 10% up to 20%)	+++ (Gcase activation greater than 60%)	–	–
Cc1ccc(-c2cc(C)n3ncc(C(=O)NC(C)C(F)(F)F)c3n2)cn1 (centres unmarked) [III-283]	–	–	* (less than 10% Gcase activation)	++ (Gcase activation in the range of 30% up to 60%)
Cc1cc(-c2cnccc2C(F)(F)F)nc2c(C(=O)NC(C)C(F)(F)F)cnn12 (centres unmarked) [III-284]	–	–	** (Gcase activation in the range of 10% up to 20%)	+++ (Gcase activation greater than 60%)
Cc1cc(-c2cncc(C(F)(F)F)c2)nc2c(C(=O)NC(C)C(F)(F)F)cnn12 (centres unmarked) [III-285]	–	–	*** (greater than 20% Gcase activation)	+++ (Gcase activation greater than 60%)
Cc1cc(-c2cncc(C(F)(F)F)c2)nc2c(C(=O)N[C@H](C)C(F)(F)F)cnn12 [III-286]	–	–	*** (greater than 20% Gcase activation)	+++ (Gcase activation greater than 60%)

SMILES	Percent Gcase Activation, 0.1 μM Test Compound (test compound at 0.1 μM)	Percent Gcase Activation, 1 μM Test Compound (test compound at 1.0 μM)	Percent Gcase Activation, 0.1 μM Test Compound (0.1 μM test compound)	Percent Gcase Activation, 1 μM Test Compound (1 μM test compound)
Cc1cc(-c2cncc(C(F)(F)F)c2)nc2c(C(=O)N[C@@H](C)C(F)(F)F)cnn12 [III-287]	–	–	*** (greater than 20% Gcase activation)	+++ (Gcase activation greater than 60%)
Cc1cc(-c2ccc(C(F)(F)F)nc2)nc2c(C(=O)NC(C)C(F)(F)F)cnn12 (centres unmarked) [III-288]	–	–	** (Gcase activation in the range of 10% up to 20%)	+++ (Gcase activation greater than 60%)
Cc1cc(-c2ccc3c(c2)OCO3)nc2c(C(=O)NC(C)C(F)(F)F)cnn12 (centres unmarked) [III-289]	–	–	*** (greater than 20% Gcase activation)	+++ (Gcase activation greater than 60%)
Cc1cc(-c2cncc(Cl)c2)nc2c(C(=O)N[C@@H](C)C3CC3)cnn12 [III-290]	–	–	*** (greater than 20% Gcase activation)	+++ (Gcase activation greater than 60%)
Cc1cc(-c2cncc(Cl)c2)nc2c(C(=O)N[C@H](C)C3CC3)cnn12 [III-291]	–	–	*** (greater than 20% Gcase activation)	+++ (Gcase activation greater than 60%)
Cc1cc(-c2cncc(Cl)c2)nc2c(C(=O)NC(C)(C)C3CC3)cnn12 [III-292]	–	–	*** (greater than 20% Gcase activation)	+++ (Gcase activation greater than 60%)
CCCCO[C@H]1CC[C@H](NC(=O)c2cnn3c(C)cc(-c4cncc(Cl)c4)nc23)CC1 [III-293]	–	–	*** (greater than 20% Gcase activation)	+++ (Gcase activation greater than 60%)
Cc1cc(-c2cc(F)c3c(c2)OCO3)nc2c(C(=O)NC(C)C(F)(F)F)cnn12 (centres unmarked) [III-294]	–	–	*** (greater than 20% Gcase activation)	+++ (Gcase activation greater than 60%)
Cc1cc(-c2cc(F)c3ocnc3c2)nc2c(C(=O)NC(C)C(F)(F)F)cnn12 (centres unmarked) [III-295]	–	–	*** (greater than 20% Gcase activation)	+++ (Gcase activation greater than 60%)
Cc1cc(-c2cc(F)c3ocnc3c2)nc2c(C(=O)N[C@H](C)C(F)(F)F)cnn12 [III-296]	–	–	*** (greater than 20% Gcase activation)	+++ (Gcase activation greater than 60%)
Cc1cc(-c2cc(F)c3ocnc3c2)nc2c(C(=O)N[C@@H](C)C(F)(F)F)cnn12 [III-297]	–	–	*** (greater than 20% Gcase activation)	+++ (Gcase activation greater than 60%)
COCCOc1ccc(-c2cc(C)n3ncc(C(=O)NC(C)C(F)(F)F)c3n2)cc1F (centres unmarked) [III-298]	–	–	*** (greater than 20% Gcase activation)	+++ (Gcase activation greater than 60%)
Cc1cc(-c2ccc(N3CCOCC3)c(F)c2)nc2c(C(=O)NC(C)C(F)(F)F)cnn12 (centres unmarked) [III-299]	–	–	*** (greater than 20% Gcase activation)	+++ (Gcase activation greater than 60%)
Cc1cc(-c2sccc2C#N)nc2c(C(=O)NC(C)C(F)(F)F)cnn12 (centres unmarked) [III-300]	–	–	*** (greater than 20% Gcase activation)	+++ (Gcase activation greater than 60%)
Cc1cc(-c2sccc2C#N)nc2c(C(=O)N[C@@H](C)C3CC3)cnn12 [III-301]	–	–	*** (greater than 20% Gcase activation)	+++ (Gcase activation greater than 60%)
Cc1cc(-c2sccc2C#N)nc2c(C(=O)N[C@H](C)C3CC3)cnn12 [III-302]	–	–	*** (greater than 20% Gcase activation)	+++ (Gcase activation greater than 60%)
Cc1cc(-c2ccc3c(c2)ncn3C)nc2c(C(=O)NC(C3CC3)C(F)(F)F)cnn12 (centres unmarked) [III-303]	–	–	** (Gcase activation in the range of 10% up to 20%)	+ (less than 30% Gcase activation)
